What follows are molecules tested against T1, Human cRaf1 (Homo sapiens, UniProt P04049) (assay: Raf kinase assay (cRaf1 assay / Raf/MEK cascade assay)). Details: Table 3; read-out: Raf Kinase activity.
T1 construct: poly-histidine (C); made in house
Assay type: biochemical
Procedure: The potency of cRaf1 dependent kinase activity was measured using one of two assay formats. The first measured cRaf1 catalyzed phosphorylation of MEK1, the natural substrate for cRaf1. This assay is referred to as the cRaf1 assay. The second measured the ability of cRaf1 to phosphorylate and activate MEK1. This assay is referred to as the Raf/MEK cascade assay.
Human cRaf1 tagged with poly histidine at the carboxyterminus was expressed in a baculovirus expression system and purfied by Ni chelate affinity chromatography. Human MEK1 was expressed in E. coli as a fusion protein with Glutathione-S-transferase, and purified by glutathione sepharose affinity chromatography. […] Reactions contained cRaf1 (20 nM), MEK1 (100-500 nM), [γ-^32 P]ATP ([…]), Mg^2+ (10 mM), MOPS (50 mM, pH 7.5). Reactions were incubated at room temperature for periods of time ranging from 20-120 minutes. Inhibitors were diluted in 100% DMSO prior to addition to the assay. Reactions were terminated with an equal volume of 0.5% phosphoric acid. MEK1 phosphorylation was detected by scintillation counting following collection of protein onto phosphocellulose filters.
Human cRaf1 and MEK1 were purified as described above. A peptide substrate phosphorylated by MEK1 was used as the final phosphoryl group acceptor. […] Assay conditions were the same as those described above except for the following modifications. Reactions contained cRaf1 (1-5 nM), MEK1 (60 nM), and peptide ([…]).

T1 sequence (P04049 whole entry): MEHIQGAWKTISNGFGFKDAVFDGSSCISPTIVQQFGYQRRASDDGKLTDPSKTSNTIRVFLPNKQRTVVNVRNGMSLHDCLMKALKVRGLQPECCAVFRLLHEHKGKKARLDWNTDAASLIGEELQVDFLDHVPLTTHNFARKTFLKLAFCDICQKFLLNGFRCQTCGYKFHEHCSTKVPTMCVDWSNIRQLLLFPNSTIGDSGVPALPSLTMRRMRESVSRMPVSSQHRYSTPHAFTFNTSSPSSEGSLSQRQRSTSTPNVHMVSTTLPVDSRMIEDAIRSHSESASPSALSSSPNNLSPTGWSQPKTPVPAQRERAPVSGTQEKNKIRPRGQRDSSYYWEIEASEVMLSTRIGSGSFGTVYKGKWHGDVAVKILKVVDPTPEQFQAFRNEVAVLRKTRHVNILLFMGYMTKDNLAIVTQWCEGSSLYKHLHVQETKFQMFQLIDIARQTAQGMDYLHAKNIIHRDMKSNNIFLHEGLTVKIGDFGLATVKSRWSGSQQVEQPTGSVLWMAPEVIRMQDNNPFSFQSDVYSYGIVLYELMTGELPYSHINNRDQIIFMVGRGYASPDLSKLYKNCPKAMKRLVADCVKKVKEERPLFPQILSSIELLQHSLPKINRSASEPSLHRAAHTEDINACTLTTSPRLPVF

| SMILES | IC50 [nM] |
| --- | --- |
| O=C1Nc2ccc(Br)cc2C1=Cc1cc(I)c(O)c(I)c1 [Example 44, 5-Bromo-3-(3,5-diiodo-4-hydroxy-benzylidene)-1,3-dihydro-indol-2-one] | < 1000 |
| O=C1Nc2ccc(OC(F)(F)F)cc2C1=Cc1cc(I)c(O)c(I)c1 [Example 45, 3-(3,5-diiodo-4-Hydroxy-benzylidene)-5-trifluoromethoxy-1,3-dihydro-indol-2-one] | < 1000 |
| COc1cc(C=C2C(=O)Nc3ccccc32)cc(Br)c1O [Example 46, 3-(3-Bromo-4-hydroxy-5-methoxy-benzylidene)-1,3-dihydro-indol-2-one] | < 1000 |
| O=C1Nc2ccccc2C1=Cc1cc([N+](=O)[O-])c(O)c([N+](=O)[O-])c1 [Example 47, 3-(3,5-dinitro-4-Hydroxy-benzylidene)-1,3-dihydro-indol-2-one] | 1000 to 10000 |
| O=C1Nc2ccccc2C1=Cc1cc(Cl)c(O)c(Cl)c1 [Example 48, 3-(3,5-dichloro-4-Hydroxy-benzylidene)-1,3-dihydro-indol-2-one] | 1000 to 10000 |
| COc1cc(C=C2C(=O)Nc3ccccc32)cc(Cl)c1O [Example 49, 3-(3-Chloro-4-hydroxy-5-methoxy-benzylidene)-1,3-dihydro-indol-2-one] | 1000 to 10000 |
| O=C1Nc2ccccc2C1=Cc1cc(I)c(O)c(I)c1 [Example 50, 3-(3,5-diiodo-4-Hydroxy-benzylidene)-1,3-dihydro-indol-2-one] | 1000 to 10000 |
| O=C1Nc2ccc(Cl)cc2C1=Cc1cc([N+](=O)[O-])c(O)c([N+](=O)[O-])c1 [Example 52, 5-Chloro-3-(3,5-dinitro-4-hydroxy-benzylidene)-1,3-dihydro-indol-2-one] | < 1000 |
| COc1cc(C=C2C(=O)Nc3ccc(Cl)cc32)cc([N+](=O)[O-])c1O [Example 53, 5-Chloro-3-(4-hydroxy-3-methoxy-5-nitro-benzylidene)-1,3-dihydro-indol-2-one] | < 1000 |
| COc1cc(C=C2C(=O)Nc3ccc(Cl)cc32)cc(Cl)c1O [Example 54, 5-Chloro-3-(3-chloro-4-hydroxy-5-methoxy-benzylidene)-1,3-dihydro-indol-2-one] | < 1000 |
| O=C1Nc2ccc(Cl)cc2C1=Cc1cc(I)c(O)c(I)c1 [Example 55, 5-Chloro-3-(3,5-diiodo-4-hydroxy-benzylidene)-1,3-dihydro-indol-2-one] | < 1000 |
| COc1cc(C=C2C(=O)Nc3cc(F)c(F)cc32)cc(Br)c1O [Example 58, 3-(3-Bromo-4-hydroxy-5-methoxy-benzylidene)-5,6-difluoro-1,3-dihydro-indol-2-one] | < 1000 |
| CCOc1cc(C=C2C(=O)Nc3ccc(OC(F)(F)F)cc32)cc(Br)c1O [Example 59, 3-(3-Bromo-5-ethoxy-4-hydroxy-benzylidene)-5-trifluoromethoxy-1,3-dihydro-indol-2-one] | < 1000 |
| O=C1Nc2ccc(OC(F)(F)F)cc2C1=Cc1cc(Cl)c(O)c(Cl)c1 [Example 60, 3-(3,5-Dichloro-4-hydroxy-benzylidene)-5-trifluoromethoxy-1,3-dihydro-indol-2-one] | < 1000 |
| COc1cc(C=C2C(=O)Nc3ccc(OC(F)(F)F)cc32)cc(Br)c1O [Example 61, 3-(3-Bromo-4-hydroxy-5-methoxy-benzylidene)-5-trifluoromethoxy-1,3-dihydro-indol-2-one] | < 1000 |
| O=C1Nc2c(cc([N+](=O)[O-])cc2[N+](=O)[O-])C1=Cc1cc(Br)c(O)c(Br)c1 [Example 62, 3-(3,5-Dibromo-4-hydroxy-benzylidene)-5,7-dinitro-1,3-dihydro-indol-2-one] | < 1000 |
| O=C1Nc2ccc([N+](=O)[O-])cc2C1=Cc1cc(Cl)c(O)c(Cl)c1 [Example 65, 3-(3,5-Dichloro-4-hydroxy-benzylidene)-5-nitro-1,3-dihydro-indol-2-one] | < 1000 |
| O=C1Nc2c(Br)cccc2C1=Cc1cc(Cl)c(O)c(Cl)c1 [Example 67, 7-Bromo-3-(3,5-dichloro-4-hydroxy-benzylidene)-1,3-dihydro-indol-2-one] | < 1000 |
| CC(C)(C)C(=O)OCOc1c(Br)cc(C=C2C(=O)Nc3ccc(I)cc32)cc1Br [Example 80, 2,2-Dimethyl-propionic acid,2,6-dibromo-4-(5-iodo-2-oxo-1,3-dihydro-indol-3-ylidenemethyl)-phenoxymethyl ester] | 10000 to 100000 |
| COc1cc(C=C2C(=O)Nc3ccc(Br)cc32)cc(Cl)c1O [Example 82, 5-Bromo-3-(3-chloro-4-hydroxy-5-methoxy-benzylidene)-1,3-dihydro-indol-2-one] | < 1000 |
| O=C1Nc2ccc(I)cc2C1=Cc1cc(Br)c(OC(=O)N(CCO)CCO)c(Br)c1 [Example 87, N-[bis-(2-hydroxy-ethyl)]carbamic acid, 2,6-dibromo-4-(5-iodo-2-oxo-1,3-dihydro-indol-3-ylidenemethyl) phenyl ester] | 10000 to 100000 |

Results, then the molecule that gave them:

| IC50 [nM] | SMILES |
| --- | --- |
| < 1000 | COc1cc(C=C2C(=O)Nc3ccc(I)cc32)cc(Br)c1O [Example 43, 3-(3-Bromo-4-hydroxy-5-methoxy-benzylidene)-5-iodo-1,3-dihydro-indol-2-one] |
| < 1000 | COc1cc(C=C2C(=O)Nc3ccc(Cl)cc32)cc(Br)c1O [Example 51, 3-(3-Bromo-4-hydroxy-5-methoxy-benzylidene)-5-chloro-1,3-dihydro-indol-2-one] |
| < 1000 | CCOc1cc(C=C2C(=O)Nc3ccc(Br)cc32)cc(Br)c1O [Example 56, 5-Bromo-3-(3-bromo-5-ethoxy-4-hydroxy-benzylidene)-1,3-dihydro-indol-2-one] |
| < 1000 | COc1cc(C=C2C(=O)Nc3ccc(Br)cc32)cc(Br)c1O [Example 57, 5-Bromo-3-(3-bromo-4-hydroxy-5-methoxy-benzylidene)-1,3-dihydro-indol-2-one] |
| < 1000 | O=C1Nc2ccc([N+](=O)[O-])cc2C1=Cc1cc(Br)c(O)c(Br)c1 [Example 63, 3-(3,5-Dibromo-4-hydroxy-benzylidene)-5-nitro-1,3-dihydro-indol-2-one] |
| < 1000 | O=C1Nc2c(I)cccc2C1=Cc1cc(Br)c(O)c(Br)c1 [Example 64, 3-(3,5-Dibromo-4-hydroxy-benzylidene)-7-iodo-1,3-dihydro-indol-2-one] |
| < 1000 | CCOc1cc(C=C2C(=O)Nc3ccc([N+](=O)[O-])cc32)cc(Br)c1O [Example 68, 3-(3-Bromo-5-ethoxy-4-hydroxy-benzylidene)-5-nitro-1,3-dihydro-indol-2-one] |
| < 1000 | CN(CC(N)=O)CC(=O)c1ccc2c(c1)C(=Cc1cc(Br)c(O)c(Br)c1)C(=O)N2 [Example 69, 2-(N-{3-[3-(3,5 Dibromo-4-hydroxy-benzylidene)-2-oxo-2,3-dihydro-1H-indol-5-yl]-2-oxo-ethyl}-N-methyl-amino)-acetamide] |
| < 1000 | O=C1Nc2ccc(C(=O)CN(CCO)CCCO)cc2C1=Cc1cc(Br)c(O)c(Br)c1 [Example 70, 3-(3,5-Dibromo-4-hydroxy-benzylidene)-5-{2-[(N-2-hydroxy-ethyl)-N-(3-hydroxy-propyl)-amino]-acetyl}-1,3-dihydro-indol-2-one] |
| < 1000 | O=C1Nc2ccc(C(=O)CN3CCSCC3)cc2C1=Cc1cc(Br)c(O)c(Br)c1 [Example 72] |
| < 1000 | O=C1Nc2ccc(C(=O)CN3CCOCC3)cc2C1=Cc1cc(Br)c(O)c(Br)c1 [Example 73] |
| < 1000 | O=C1Nc2ccc(C(=O)CN(CCO)CCO)cc2C1=Cc1cc(Br)c(O)c(Br)c1 [Example 74, 5-{2-[Bis-(2-hydroxy-ethyl)-amino]-acetyl}-3-(3,5-dibromo-4-hydroxy-benzylidene)-1,3-dihydro-indol-2-one] |
| < 1000 | CN(CCO)CC(=O)c1ccc2c(c1)C(=Cc1cc(Br)c(O)c(Br)c1)C(=O)N2 [Example 75] |
| < 1000 | O=C1Nc2ccc(C(=O)CN3CCSC3)cc2C1=Cc1cc(Br)c(O)c(Br)c1 [Example 76, 3-(3,5-Dibromo-4-hydroxy-benzylidene)-5-(2-(thiazolidin-3-yl)-acetyl)-1,3-dihydro-indol-2-one] |
| < 1000 | O=C1Nc2ccc(C(=O)C[n+]3ccccc3)cc2C1=Cc1cc(Br)c(O)c(Br)c1 [Example 77, 3-(3,5-Dibromo-4-hydroxy-benzylidene)-5-(2-(N-pyridinium)-acetyl)-1,3-dihydro-indol-2-one chloride] |
| < 1000 | O=C1Nc2ccc(Br)cc2C1=Cc1cc(Br)c(O)c(Br)c1 [Example 81, 5-Bromo-3-(3,5-dibromo-4-hydroxy-benzylidene)-1,3-dihydro-indol-2-one] |
| < 1000 | CCN(CC)CC(=O)c1ccc2c(c1)C(=Cc1cc(Br)c(O)c(Br)c1)C(=O)N2 [Example 83, 3-(3,5-Dibromo-4-hydroxy-benzylidene)-5-(2-diethylamino-acetyl)-1,3-dihydro-indol-2-one] |
| < 1000 | O=C1Nc2c(I)cc(C(=O)CCl)cc2C1=Cc1cc(Br)c(O)c(Br)c1 [Example 86, 5-(2-Chloro-acetyl)-3-(3,5-dibromo-4-hydroxy-benzylidene)-7-iodo-1,3-dihydro-indol-2-one] |
| < 1000 | O=C1Nc2ccc(C(=O)CCl)cc2C1=Cc1cc(Cl)c(O)c(Cl)c1 [Example 88, 5-(2-Chloro-acetyl)-3-(3,5-dichloro-4-hydroxy-benzylidene)-1,3-dihydro-indol-2-one] |
